pIC50: −log10 of the molar value.
The compounds below were run against NaV 1.8 channel (Homo sapiens, UniProt Q9Y5Y9) (assay: Activity against NaV 1.8 channel (optical membrane potential assay)).
Type: cell-based
Description: Compounds of the invention are useful as antagonists of voltage-gated sodium ion channels. Antagonist properties of test compounds were assessed as follows. Cells expressing the NaV of interest were placed into microtiter plates. After an incubation period, the cells were stained with fluorescent dyes sensitive to the transmembrane potential. The test compounds were added to the microtiter plate. The cells were stimulated with either a chemical or electrical means to evoke a NaV dependent membrane potential change from unblocked channels, which was detected and measured with trans-membrane potential-sensitive dyes. Antagonists were detected as a decreased membrane potential response to the stimulus. The optical membrane potential assay utilized voltage-sensitive FRET sensors described by Gonzalez and Tsien (See, Gonzalez, J. E. and R. Y. Tsien (1995) “Voltage sensing by fluorescence resonance energy transfer in single cells” Biophys J 69(4): 1272-80, and Gonzalez, J. E. and R. Y. Tsien (1997) “Improved indicators of cell membrane potential that use fluorescence resonance energy transfer” Chem Biol 4(4): 269-77) in combination with instrumentation for measuring fluorescence changes such as the Voltage/Ion Probe Reader (VIPR®) (See, Gonzalez, J. E., K. Oades, et al. (1999) “Cell-based assays and instrumentation for screening ion-channel targets” Drug Discov Today 4(9): 431-439).
24 hours before the assay on VIPR, CHO cells endogenously expressing a NaV1.2 type voltage-gated NaV are seeded in 96-well poly-lysine coated plates at 60,000 cells per well. Other subtypes are performed in an analogous mode in a cell line expressing the NaV of interest. • 1) On the day of the assay, medium is aspirated and cells are washed twice with 225 μL of Bath Solution #2 (BS#2). • 2) A 15 uM CC2-DMPE solution is prepared by mixing 5 mM coumarin stock solution with 10% Pluronic 127 1:1 and then dissolving the mix in the appropriate volume of BS#2. • 3) After bath solution is removed from the 96-well plates, the cells are loaded with 80 μL of the CC2-DMPE solution. Plates are incubated in the dark for 30 minutes at room temperature. • 4) While the cells are being stained with coumarin, a […] solution in BS#2 is prepared. In addition to DiSBAC2(3), this solution should contain 0.75 mM ABSCl and […] (prepared from 10 mM EtOH stock, Sigma #V-5754). • 5) After 30 minutes, CC2-DMPE is removed and the cells are washed twice with 225 μL of BS#2. As before, the residual volume should be 40 μL. • 6) Upon removing the bath, the cells are loaded with 80 μL of the DiSBAC2(3) solution, after which test compound, dissolved in DMSO, is added to achieve the desired test concentration to each well from the drug addition plate and mixed thoroughly. The volume in the well should be roughly 121 μL. The cells are then incubated for 20-30 minutes. • 7) Once the incubation is complete, the cells are ready to be assayed on VIPR® with a sodium add back protocol. 120 μL of Bath solution #1 is added to stimulate the NaV dependent depolarization. […] was used as an antagonist positive control for block of the NaV channel.
Data are analyzed and reported as normalized ratios of background-subtracted emission intensities measured in the 460 nm and 580 nm channels. Background intensities are then subtracted from each assay channel. Background intensities are obtained by measuring the emission intensities during the same time periods from identically treated assay wells in which there are no cells. The response as a function of time is then reported as the ratios obtained using the following formula: […]
The data is further reduced by calculating the initial (Ri) and final (Rf) ratios. These are the average ratio values during part or all of the pre-stimulation period, and during sample points during the stimulation period. The response to the stimulus R=Rf/Ri is then calculated. […]

Sequence of NaV 1.8 channel (Q9Y5Y9 whole entry): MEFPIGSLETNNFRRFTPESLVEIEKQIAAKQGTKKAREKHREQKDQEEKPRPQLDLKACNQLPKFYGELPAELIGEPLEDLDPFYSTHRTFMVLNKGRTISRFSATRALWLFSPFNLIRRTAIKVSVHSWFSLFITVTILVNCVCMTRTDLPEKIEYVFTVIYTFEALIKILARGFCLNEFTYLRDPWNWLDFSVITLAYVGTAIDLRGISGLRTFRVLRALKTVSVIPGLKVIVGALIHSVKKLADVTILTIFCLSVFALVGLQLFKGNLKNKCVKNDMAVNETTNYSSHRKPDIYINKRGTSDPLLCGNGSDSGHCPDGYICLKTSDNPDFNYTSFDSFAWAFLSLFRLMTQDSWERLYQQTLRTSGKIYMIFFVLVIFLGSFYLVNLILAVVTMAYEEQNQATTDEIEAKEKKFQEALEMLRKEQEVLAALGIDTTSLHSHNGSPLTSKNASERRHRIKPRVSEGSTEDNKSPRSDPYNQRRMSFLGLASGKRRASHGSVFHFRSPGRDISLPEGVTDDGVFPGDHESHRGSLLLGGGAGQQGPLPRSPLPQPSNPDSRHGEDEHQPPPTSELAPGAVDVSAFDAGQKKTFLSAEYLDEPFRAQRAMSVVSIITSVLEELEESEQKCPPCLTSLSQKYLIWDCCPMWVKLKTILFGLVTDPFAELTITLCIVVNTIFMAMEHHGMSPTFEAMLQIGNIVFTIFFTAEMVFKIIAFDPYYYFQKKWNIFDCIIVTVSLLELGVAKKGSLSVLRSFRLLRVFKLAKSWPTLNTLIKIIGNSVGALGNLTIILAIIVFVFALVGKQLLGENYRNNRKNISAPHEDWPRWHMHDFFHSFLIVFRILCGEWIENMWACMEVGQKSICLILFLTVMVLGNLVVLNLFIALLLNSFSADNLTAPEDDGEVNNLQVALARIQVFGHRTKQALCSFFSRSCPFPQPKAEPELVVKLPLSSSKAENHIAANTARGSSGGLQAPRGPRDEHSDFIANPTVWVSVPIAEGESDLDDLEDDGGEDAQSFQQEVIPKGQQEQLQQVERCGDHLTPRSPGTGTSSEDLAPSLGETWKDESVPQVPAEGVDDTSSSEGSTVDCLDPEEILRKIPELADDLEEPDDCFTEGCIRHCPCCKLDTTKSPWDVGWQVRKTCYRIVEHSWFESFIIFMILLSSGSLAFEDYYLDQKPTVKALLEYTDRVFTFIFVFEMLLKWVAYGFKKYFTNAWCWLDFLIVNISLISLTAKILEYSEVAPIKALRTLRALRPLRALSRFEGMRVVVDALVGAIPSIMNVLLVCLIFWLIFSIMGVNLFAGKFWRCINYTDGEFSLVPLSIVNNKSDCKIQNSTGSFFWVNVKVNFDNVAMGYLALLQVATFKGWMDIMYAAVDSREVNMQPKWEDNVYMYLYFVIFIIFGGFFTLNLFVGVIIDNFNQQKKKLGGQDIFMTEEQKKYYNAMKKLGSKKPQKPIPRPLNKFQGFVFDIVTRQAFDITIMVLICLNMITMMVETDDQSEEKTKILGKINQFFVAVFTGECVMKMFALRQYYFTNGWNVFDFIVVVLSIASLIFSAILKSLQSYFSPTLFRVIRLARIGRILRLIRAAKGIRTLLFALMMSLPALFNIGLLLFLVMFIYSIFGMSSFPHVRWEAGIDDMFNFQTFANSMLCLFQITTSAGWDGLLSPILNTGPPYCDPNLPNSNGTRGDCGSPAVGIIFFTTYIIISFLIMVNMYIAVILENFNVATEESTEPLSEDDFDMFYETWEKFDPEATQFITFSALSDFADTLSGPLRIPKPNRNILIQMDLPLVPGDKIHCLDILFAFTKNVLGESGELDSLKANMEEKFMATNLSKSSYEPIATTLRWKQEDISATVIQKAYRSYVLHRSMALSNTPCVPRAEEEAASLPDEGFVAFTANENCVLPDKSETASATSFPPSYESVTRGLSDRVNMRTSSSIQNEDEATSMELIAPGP

| SMILES | pIC50 |
| --- | --- |
| Cc1ccc2c(N3CCC(NC(=O)[C@H]4CCCO4)C3)nc(-c3ccccc3O)nc2c1 (stereo in doubt) [Example 303, (2R)-Tetrahydro-N—((S)-1-(2-(2-hydroxyphenyl)-7-methylquinazolin-4-yl)pyrrolidin-3-yl)furan-2-carboxamide] | 5.00 to 5.70 |
| Cc1ccc2c(N3CCN(C(=O)OCc4cccc5c4OCO5)CC3)nc(-c3ccccc3O)nc2c1 [Example 103, (Benzo[d][1,3]dioxol-7-yl)methyl 4-(2-(2-hydroxyphenyl)-7-methylquinazolin-4-yl)piperazine-1-carboxylate] | < 5.00 |
| Cc1ccc2c(N3CCN(C(=O)CC4CCOCC4)CC3)nc(-c3ccccc3O)nc2c1 [Example 105] | 5.00 to 5.70 |
| Cc1ccc2c(N3CCN(C(=O)[C@H](O)CC(C)C)[C@@H](CO)C3)nc(-c3ccccc3O)nc2c1 [Example 106, (R)-2-Hydroxy-1-((R)-2-(hydroxymethyl)-4-(2-(2-hydroxyphenyl)-7-methylquinazolin-4-yl)piperazin-1-yl)-4-methylpentan-1-one] | < 5.00 |
| O=C(OCc1cccnc1)N1CCN(c2nc(-c3ccccc3O)nc3ccccc23)CC1 [Example 107, (Pyridin-3-yl)methyl 4-(2-(2-hydroxyphenyl)quinazolin-4-yl)piperazine-1-carboxylate] | 5.00 to 5.70 |
| C[C@H](O)CC(=O)N1CCN(c2nc(-c3ccccc3O)nc3ccccc23)CC1 [Example 109, (S)-3-Hydroxy-1-(4-(2-(2-hydroxyphenyl)quinazolin-4-yl)piperazin-1-yl)butan-1-one] | 5.00 to 5.70 |
| Cc1ccc2c(N3CCN(C(=O)OCc4ccncc4)CC3)nc(-c3c(O)cccc3F)nc2c1 [Example 114, (Pyridin-4-yl)methyl 4-(2-(2-fluoro-6-hydroxyphenyl)-7-methylquinazolin-4-yl)piperazine-1-carboxylate] | 5.00 to 5.70 |
| CCC(O)(CC)C(=O)N1CCN(c2nc(-c3ccccc3O)nc3ccccc23)CC1 [Example 115, 2-Ethyl-2-hydroxy-1-(4-(2-(2-hydroxyphenyl)quinazolin-4-yl)piperazin-1-yl)butan-1-one] | < 5.00 |
| O=C(OCc1ccncc1)N1CCN(c2nc(-c3ccccc3O)nc3ccccc23)CC1 [Example 116, (Pyridin-4-yl)methyl 4-(2-(2-hydroxyphenyl)quinazolin-4-yl)piperazine-1-carboxylate] | 5.00 to 5.70 |
| O=C(O[C@H]1CCOC1)N1CCN(c2nc(-c3ccccc3O)nc3ccc(F)cc23)CC1 [Example 117, (S)-Tetrahydrofuran-3-yl 4-(6-fluoro-2-(2-hydroxyphenyl)quinazolin-4-yl)piperazine-1-carboxylate] | 5.00 to 5.70 |
| Cc1ccc2c(N3CCN(C(=O)O[C@H]4CCOC4)CC3CO)nc(-c3ccccc3O)nc2c1 (stereo partly drawn) [Example 119, (S)-3-Hydroxymethyl-4-[2-(2-hydroxyphenyl)-7-methyl-quinazolin-4-yl]-piperazine-1-carboxylic acid tetrahydro-furan-3-yl ester] | < 5.00 |
| Cc1ccc2c(N3CCN(C(=O)Oc4ccccc4)CC3CO)nc(-c3ccccc3O)nc2c1 (stereo not shown) [Example 126, 3-Hydroxymethyl-4-[2-(2-hydroxy-phenyl)-7-methyl-quinazolin-4-yl]-piperazine-1-carboxylic acid phenyl ester] | < 5.00 |
| Cc1ccc2c(N3CCN(C(=O)CCC4CCCC4)CC3)nc(-c3ccccc3O)nc2c1 [Example 127, 3-Cyclopentyl-1-(4-(2-(2-hydroxyphenyl)-7-methylquinazolin-4-yl)piperazin-1-yl)propan-1-one] | > 5.70 |
| O=C(CC1CCOCC1)N1CCN(c2nc(-c3ccccc3O)nc3ccc(F)cc23)CC1 [Example 128, 1-(4-(6-Fluoro-2-(2-hydroxyphenyl)quinazolin-4-yl)piperazin-1-yl)-2-(tetrahydro-2H-pyran-4-yl)ethanone] | 5.00 to 5.70 |

The next lines start with the values.

| pIC50 | SMILES |
| --- | --- |
| > 5.70 | Cc1ccc2c(N3CCN(C(=O)[C@H](O)CC(C)(C)C)CC3)nc(-c3ccccc3O)nc2c1 [Example 101, (R)-2-Hydroxy-1-(4-(2-(2-hydroxyphenyl)-7-methylquinazolin-4-yl)piperazin-1-yl)-4,4-dimethylpentan-1-one] |
| 5.00 to 5.70 | CC(C)C[C@@H](O)C(=O)N1CCN(c2nc(-c3ccccc3O)nc3ccccc23)CC1 [Example 102, (R)-2-Hydroxy-1-(4-(2-(2-hydroxyphenyl)quinazolin-4-yl)piperazin-1-yl)-4-methylpentan-1-one] |
| < 5.00 | Cc1ccc2c(N3CCN(C(=O)[C@H](O)CC(=O)N(C)C)CC3)nc(-c3ccccc3O)nc2c1 [Example 104, (R)-3-Hydroxy-4-(4-(2-(2-hydroxyphenyl)-7-methylquinazolin-4-yl)piperazin-1-yl)-N,N-dimethyl-4-oxobutanamide] |
| 5.00 to 5.70 | Cc1ccc2c(N3CCN(C(=O)C(C)(C)O)CC3)nc(-c3ccccc3O)nc2c1 [Example 108, 2-Hydroxy-1-(4-(2-(2-hydroxyphenyl)-7-methylquinazolin-4-yl)piperazin-1-yl)-2-methylpropan-1-one] |
| < 5.00 | Cc1ccc2c(N3CCN(C(=O)C(C)(O)C(F)(F)F)CC3)nc(-c3ccccc3O)nc2c1 (stereo not shown) [Example 110, 2-(Trifluoromethyl)-2-hydroxy-1-(4-(2-(2-hydroxyphenyl)-7-methylquinazolin-4-yl)piperazin-1-yl)propan-1-one] |
| < 5.00 | CC(C)(C)C[C@@H](O)C(=O)N1CCN(c2nc(-c3ccccc3O)nc3ccc(F)cc23)CC1 [Example 111, (R)-1-(4-(6-Fluoro-2-(2-hydroxyphenyl)quinazolin-4-yl)piperazin-1-yl)-2-hydroxy-4,4-dimethylpentan-1-one] |
| < 5.00 | Cc1ccc2c(N3CCN(C(=O)C(O)CC(F)(F)F)CC3)nc(-c3ccccc3O)nc2c1 (stereo not shown) [Example 112, 4,4,4-Trifluoro-2-hydroxy-1-(4-(2-(2-hydroxyphenyl)-7-methylquinazolin-4-yl)piperazin-1-yl)butan-1-one] |
| 5.00 to 5.70 | Cc1ccc2c(N3CCN(C(=O)C(O)C(C)C)CC3)nc(-c3ccccc3O)nc2c1 (stereo not shown) [Example 113, 2-Hydroxy-1-(4-(2-(2-hydroxyphenyl)-7-methylquinazolin-4-yl)piperazin-1-yl)-3-methylbutan-1-one] |
| 5.00 to 5.70 | CC[C@@H](O)C(=O)N1CCN(c2nc(-c3ccccc3O)nc3ccccc23)CC1 [Example 118, (R)-2-Hydroxy-1-(4-(2-(2-hydroxyphenyl)quinazolin-4-yl)piperazin-1-yl)butan-1-one] |
| 5.00 to 5.70 | CCCCC(O)C(=O)N1CCN(c2nc(-c3ccccc3O)nc3cc(C)ccc23)CC1 (stereo not shown) [Example 120] |
| 5.00 to 5.70 | CCC(O)(CC)C(=O)N1CCN(c2nc(-c3ccccc3O)nc3cc(C)ccc23)CC1 [Example 122, 2-Ethyl-2-hydroxy-1-(4-(2-(2-hydroxyphenyl)-7-methylquinazolin-4-yl)piperazin-1-yl)butan-1-one] |
| < 5.00 | CC(C)C[C@@H](O)C(=O)N1CCN(c2nc(-c3ccccc3O)nc3cc(C(=O)O)ccc23)CC1 [Example 123, 4-[4-((R)-2-Hydroxy-4-methyl-pentanoyl)-piperazin-1-yl]-2-(2-hydroxy-phenyl)-quinazoline-7-carboxylic acid] |
| < 5.00 | CC[C@H](O)C(=O)N1CCN(c2nc(-c3ccccc3O)nc3cc(C)ccc23)CC1 [Example 124, (S)-2-Hydroxy-1-(4-(2-(2-hydroxyphenyl)-7-methylquinazolin-4-yl)piperazin-1-yl)butan-1-one] |
| < 5.00 | Cc1ccc2c(N3CCN(C(=O)[C@H](O)CC(C)(C)F)CC3)nc(-c3ccccc3O)nc2c1 [Example 125, (R)-4-Fluoro-2-hydroxy-1-{4-[2-(2-hydroxy-phenyl)-7-methyl-quinazolin-4-yl]-piperazin-1-yl}-4-methyl-pentan-1-one] |
